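Step 1: Grow cells in 96-well plates. Step 2: Expose to compound for 48 hours at 5 concentrations. Step 3: Interpolate endpoints linearly; if unreached, use highest concentration. Abbreviation: GI50, concentration required for 50% inhibition of growth.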 The source made the active and inactive calls. No stated cut-off is given here; in the data, active = GI50 up to about 1.1 µM and inactive = higher.
Experiments:
Experiment in all cases: NCI tumour cell line growth inhibition, 48 h
[1] = system: UACC-257
[2] = system: ACHN
[3] = system: IGROV-1
[4] = system: BT-549
[5] = system: Malme-3M
[6] = system: MOLT-4
[7] = system: NCI-H522
[8] = system: MDA-MB-435
[9] = system: SW-620
[10] = system: 786-0
[11] = system: MDA-MB-231
[12] = system: NCI-H460
[13] = system: Hs-578T
[14] = system: A498
[15] = system: SF-268
[16] = system: SN12C
[17] = system: M14
[18] = system: OVCAR-3
[19] = system: HCT-15

| SMILES | GI50 [1] | GI50 [2] | GI50 [3] | GI50 [4] | GI50 [5] | GI50 [6] | GI50 [7] | GI50 [8] | GI50 [9] | GI50 [10] | GI50 [11] | GI50 [12] | GI50 [13] | GI50 [14] | GI50 [15] | GI50 [16] | GI50 [17] | GI50 [18] | GI50 [19] |
| --- | --- | --- | --- | --- | --- | --- | --- | --- | --- | --- | --- | --- | --- | --- | --- | --- | --- | --- | --- |
| Oc1c2c(nc3cc4c(cc13)OCO4)-c1ccccc1CCC2 | > 50 µM (inactive) | > 50 µM (inactive) | 30.2 µM (inactive) | > 50 µM (inactive) | > 50 µM (inactive) | > 50 µM (inactive) | > 50 µM (inactive) | 23.7 µM (inactive) | > 50 µM (inactive) | > 50 µM (inactive) | > 50 µM (inactive) | > 50 µM (inactive) | 15.9 µM (inactive) | > 50 µM (inactive) | > 50 µM (inactive) | > 50 µM (inactive) | 49.3 µM (inactive) | > 50 µM (inactive) | > 50 µM |
| COc1cc(OCc2ccc3nc(-c4ccccc4)c(N)nc3c2)cc(OC)c1OC | 25 µM (inactive) | 20.8 µM (inactive) | 22.2 µM (inactive) | 16.1 µM (inactive) | 13.4 µM (inactive) | 8.13 µM (inactive) | 13.6 µM (inactive) | 19.1 µM (inactive) | 28.2 µM (inactive) | 30.8 µM (inactive) | 25.5 µM (inactive) | 18.7 µM (inactive) | 21.2 µM (inactive) | 27.1 µM (inactive) | 34.8 µM (inactive) | 25.7 µM (inactive) | 15.8 µM (inactive) | 16.4 µM (inactive) | 17.3 µM |
| COc1cccc(OC)c1/C=C1\OC(=O)c2cccc(OC)c21 | 7.43 µM (inactive) | 8.59 µM (inactive) | 4.71 µM (inactive) | 5.22 µM (inactive) | 3.42 µM (inactive) | 5.64 µM (inactive) | 2.5 µM (inactive) | 0.526 µM (active) | 3.37 µM (inactive) | 5.02 µM (inactive) | 12.8 µM (inactive) | 2.65 µM (inactive) | 3.96 µM (inactive) | 4.14 µM (inactive) | 6.4 µM (inactive) | 20 µM (inactive) | 4.1 µM (inactive) | 2.51 µM (inactive) | 2.24 µM |
| O=C(NNC(=O)c1ccccc1O)c1ccccc1O | 0.376 µM (active) | 0.0507 µM (active) | < 0.0255 µM (active) | 0.0426 µM (active) | 0.0393 µM (active) | 0.0385 µM (active) | 0.112 µM (active) | < 0.01 µM (active) | 0.108 µM (active) | 0.141 µM (active) | 5.24 µM (inactive) | 0.15 µM (active) | 0.0149 µM (active) | 19.8 µM (inactive) | < 0.0233 µM (active) | 0.0792 µM (active) | 0.0785 µM (active) | 0.258 µM (active) | 0.11 µM |
| O=C1NC2CCCCC2N=C1CC(=O)c1ccc(Br)cc1 (stereo not given) | > 100 µM (inactive) | 49.1 µM (inactive) | 5.22 µM (inactive) | 14.6 µM (inactive) | > 100 µM (inactive) | 5.61 µM (inactive) | 3.05 µM (inactive) | > 100 µM (inactive) | > 100 µM (inactive) | 64.1 µM (inactive) | 16.2 µM (inactive) | 3.4 µM (inactive) | 4.86 µM (inactive) | > 100 µM (inactive) | 28.6 µM (inactive) | 27.7 µM (inactive) | > 100 µM (inactive) | > 100 µM (inactive) | 29.4 µM |
| CC1=C(C(=O)Nc2cccc3c2C(=O)NC3=O)CC(C(=O)Nc2cccc3c2C(=O)NC3=O)=C(C)N1 | > 100 µM (inactive) | > 100 µM (inactive) | > 100 µM (inactive) | > 100 µM (inactive) | > 100 µM (inactive) | > 100 µM (inactive) | > 100 µM (inactive) | > 100 µM (inactive) | > 100 µM (inactive) | > 100 µM (inactive) | > 100 µM (inactive) | > 100 µM (inactive) | > 100 µM (inactive) | > 100 µM (inactive) | > 100 µM (inactive) | > 100 µM (inactive) | > 100 µM (inactive) | > 100 µM (inactive) | > 100 µM |
| C=CCc1[nH]c2c(OCc3ccccc3)cc(N(CC=C)C(C)=O)cc2c1C | 16 µM (inactive) | 12.8 µM (inactive) | 14.4 µM (inactive) | 15.8 µM (inactive) | 16.4 µM (inactive) | 5.77 µM (inactive) | 13 µM (inactive) | 17.1 µM (inactive) | 13.9 µM (inactive) | 14.2 µM (inactive) | 10.7 µM (inactive) | 14.8 µM (inactive) | 14.2 µM (inactive) | 12.5 µM (inactive) | 12.2 µM (inactive) | 16 µM (inactive) | 10.1 µM (inactive) | 14.3 µM (inactive) | 12.9 µM |
| CC(=O)OCC1OC(N2C(=O)NC(=O)C3C=C4CCCCC4=CC32)CC1OC(C)=O (stereo not given) | > 100 µM (inactive) | > 100 µM (inactive) | > 100 µM (inactive) | > 100 µM (inactive) | > 100 µM (inactive) | > 100 µM (inactive) | 70 µM (inactive) | > 100 µM (inactive) | > 100 µM (inactive) | > 100 µM (inactive) | > 100 µM (inactive) | > 100 µM (inactive) | > 100 µM (inactive) | > 100 µM (inactive) | > 100 µM (inactive) | > 100 µM (inactive) | > 100 µM (inactive) | > 100 µM (inactive) | > 100 µM |
| CCOC(=O)C1=NN(c2ccccc2)C(=O)/C1=C\NC(=S)C(N)=S | 68.5 µM (inactive) | 21.5 µM (inactive) | 42.6 µM (inactive) | 35 µM (inactive) | 45.3 µM (inactive) | 26.4 µM (inactive) | 16.6 µM (inactive) | 33.8 µM (inactive) | 38.5 µM (inactive) | 20.7 µM (inactive) | 65.2 µM (inactive) | 49.3 µM (inactive) | 32.7 µM (inactive) | > 100 µM (inactive) | 38.5 µM (inactive) | 37.8 µM (inactive) | 26.5 µM (inactive) | 38.5 µM (inactive) | 34.1 µM |
| COC(=O)C1Cc2cccc(C)c2C1 (stereo not given) | > 100 µM (inactive) | > 100 µM (inactive) | > 100 µM (inactive) | > 100 µM (inactive) | > 100 µM (inactive) | 46.6 µM (inactive) | 51.8 µM (inactive) | > 100 µM (inactive) | > 100 µM (inactive) | > 100 µM (inactive) | > 100 µM (inactive) | > 100 µM (inactive) | > 100 µM (inactive) | > 100 µM (inactive) | > 100 µM (inactive) | > 100 µM (inactive) | > 100 µM (inactive) | > 100 µM (inactive) | 37.3 µM |
| CCOP(=O)(OCC)[C@H]1OC(C)(C)O[C@@H]1CO | > 100 µM (inactive) | > 100 µM (inactive) | > 100 µM (inactive) | > 100 µM (inactive) | > 100 µM (inactive) | > 100 µM (inactive) | > 100 µM (inactive) | > 100 µM (inactive) | > 100 µM (inactive) | > 100 µM (inactive) | > 100 µM (inactive) | > 100 µM (inactive) | > 100 µM (inactive) | > 100 µM (inactive) | > 100 µM (inactive) | > 100 µM (inactive) | > 100 µM (inactive) | > 100 µM (inactive) | > 100 µM |
| CCCC(=O)OCC1OC(n2cc(F)c(=O)[nH]c2=O)CC1O (stereo not given) | 4.1 µM (inactive) | 0.0395 µM (active) | > 8.09 µM (inactive) | 0.929 µM (active) | > 5.06 µM (inactive) | > 8.55 µM (inactive) | 3.84 µM (inactive) | > 7.98 µM (inactive) | > 10 µM (inactive) | 0.337 µM (active) | > 9.14 µM (inactive) | 0.0221 µM (active) | 3.85 µM (inactive) | 0.489 µM (active) | 0.0306 µM (active) | 0.181 µM (active) | 0.314 µM (active) | > 2.11 µM (inactive) | > 7.53 µM |
| O=[N+]([O-])C(=C(Sc1ccccc1)Sc1ccccc1)C(Cl)=C(Cl)Cl | 0.323 µM (active) | 0.248 µM (active) | 1.19 µM (inactive) | 1.18 µM (inactive) | 0.458 µM (active) | 0.051 µM (active) | 0.0776 µM (active) | 0.334 µM (active) | < 0.0391 µM (active) | 0.0703 µM (active) | 0.188 µM (active) | 5.74 µM (inactive) | 3.32 µM (inactive) | 3.44 µM (inactive) | 2 µM (inactive) | 0.65 µM (active) | 0.421 µM (active) | 0.373 µM (active) | 0.319 µM |
| O=C(O)C(Cc1ccc(O)c([N+](=O)[O-])c1)N1C(=O)c2ccccc2C1=O (stereo not given) | > 100 µM (inactive) | > 100 µM (inactive) | > 100 µM (inactive) | > 100 µM (inactive) | > 100 µM (inactive) | > 100 µM (inactive) | > 100 µM (inactive) | > 100 µM (inactive) | > 100 µM (inactive) | > 100 µM (inactive) | > 100 µM (inactive) | > 100 µM (inactive) | > 100 µM (inactive) | > 100 µM (inactive) | > 100 µM (inactive) | > 100 µM (inactive) | > 100 µM (inactive) | > 100 µM (inactive) | > 100 µM |
| CN(C)CC(C)(C)CN1c2ccccc2Sc2ccccc21 | 12 µM (inactive) | 15.1 µM (inactive) | 14.9 µM (inactive) | 14 µM (inactive) | 14.8 µM (inactive) | 6.55 µM (inactive) | 13.2 µM (inactive) | 13.4 µM (inactive) | 15 µM (inactive) | 12.9 µM (inactive) | 12 µM (inactive) | 13.5 µM (inactive) | 14 µM (inactive) | 13.6 µM (inactive) | 14.5 µM (inactive) | 12.9 µM (inactive) | 10.4 µM (inactive) | 11.9 µM (inactive) | > 100 µM |
